Data as given in paper PMC10746053, “Development of Novel Pyrrole Derivatives and Their Cinnamic Hybrids as Dual COX-2/LOX Inhibitors” (Molecules, 2023).
Values joined by “and” are separate entries in the source; they are usually repeats but may differ in a detail not shown here. Identical values can stand only once. Like-named read-outs stand apart in the source and are kept apart here.

Key:
[1] = cited from earlier work
COX-2 = conditions: Figure 1; cited from earlier work
5-LOX = conditions: Figure 1; cited from earlier work
COX-1 = conditions: Figure 1; cited from earlier work
paw edema = conditions: Figure 1; cited from earlier work
[2] = Inhibition of linoleic acid lipid peroxidation (AAPH); conditions: 37 °C, ± SD
Description: It is widely known that oxidative stress can induce lipid peroxidation. One of the major end products of the latter process are lipid-derived aldehydes, such as malondialdehyde (MDA), which is more chemically stable and membrane-permeable than ROS. These lipid aldehydes can participate in cross-linking with DNA and proteins and subsequently facilitate the development of various pathological states. Herein, we used the water-soluble 2,2′-azobis(2-methylpropionamidine) dihydrochloride (AAPH) as a free radical initiator for the in vitro antioxidant assay due to its ability to generate alkylperoxy radicals in the presence of oxygen molecules at 37 °C [53]. […] Pyrroles 1 and 2 with high lipophilicity (ClogP of 1 = 5.7, ClogP of 2 = 5.05; RM of 1 = 0.3076, RM of 2 = 0.0116) and molecular volume (MV of 1 = 318, MV of 2 = 290) values appeared to be weak antioxidants (34% and 33% at 100 μM, respectively). […] The presence of a bulkier substituent Ar^2 decreased the anti-lipid peroxidation activity of 5 (36% at 100 μM) compared to 8 (58% at 100 μM).
In vitro enzymatic assay was conducted as reported in previous studies. 2,2′-Azobis(2-methylpropionamidine) dihydrochloride (AAPH) was used as a controllable source of thermally produced alkylperoxy free radicals. The production of conjugated diene hydroperoxides via the oxidation of sodium linoleate in an aqueous dispersion at 37 °C was monitored at 234 nm. The results were compared to the reference compound, trolox (93%) (Table 2).

ovine COX-2 [3] = biological target: T1, ovine COX-2 (Ovis aries, UniProt P79208); assay: Inhibition of ovine cyclooxygenase-2 (TMPD co-substrate); conditions: for inhibition at 100 µM: read-out: COX-2 Inh. % at 100 μM, 100 μM, ovine COX-2
T1 sequence (P79208 17-603): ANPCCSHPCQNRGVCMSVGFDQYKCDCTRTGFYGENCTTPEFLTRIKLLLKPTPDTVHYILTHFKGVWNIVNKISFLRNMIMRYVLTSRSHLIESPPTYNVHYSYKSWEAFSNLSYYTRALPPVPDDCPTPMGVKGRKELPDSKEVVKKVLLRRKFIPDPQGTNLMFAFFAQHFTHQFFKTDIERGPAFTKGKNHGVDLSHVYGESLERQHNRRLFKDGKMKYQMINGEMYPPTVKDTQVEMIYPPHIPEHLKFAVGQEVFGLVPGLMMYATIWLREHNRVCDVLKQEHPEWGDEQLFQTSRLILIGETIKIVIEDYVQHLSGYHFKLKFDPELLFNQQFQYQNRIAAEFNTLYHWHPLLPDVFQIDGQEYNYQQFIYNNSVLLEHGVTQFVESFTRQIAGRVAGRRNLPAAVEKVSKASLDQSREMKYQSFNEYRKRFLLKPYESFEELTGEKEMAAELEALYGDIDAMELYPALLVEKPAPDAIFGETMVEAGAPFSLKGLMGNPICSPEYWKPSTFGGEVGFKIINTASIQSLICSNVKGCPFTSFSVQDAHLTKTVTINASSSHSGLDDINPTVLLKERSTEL
Procedure: The oxidized TMPD has an absorbance maximum at 590 nm. COXs require heme (Fe^3+-protoporphyrin IX) as a cofactor which may dissociate from the protein during its purification. Therefore, in the in vitro enzymatic assay of ovine COX-2 inhibition, heme is added to ensure maximal enzyme activity [54]. […] The in vitro COX-2 inhibitory activity was determined using arachidonic acid (AA) as a substrate and N,N,N′,N′-tetramethyl-p-phenylenediamine (TMPD) as a co-substrate in a buffer solution of Tris:HCl (pH 8.5) [27]. Ten microliters of the DMSO solution of the compound of interest were added in a test tube containing 730 μL of buffer Tris:HCl (pH 8.5), 50 μL of heme, 10 μL of COX-2 and 100 μL of TMPD. […] A blank determination was used first to serve as a negative control.

[4] = Experimental lipophilicity as RM values by reversed-phase TLC; assay type: physicochemical; conditions: RPTLC, methanol/water 70/30 v/v, five measurements
Description: Lipophilicity is one of the most studied physicochemical properties in the drug discovery process and is frequently employed in structure–activity relationship (SAR) studies. It contributes to the ADMET (absorption, distribution, metabolism, excretion, toxicity) properties, solubility, permeability to the potency and efficacy of drugs. […] In TLC, the retention parameter, RF, is defined as the ratio between the migration distances of the compound and of the mobile phase, both measured from the sample application position. The term RM was introduced to facilitate a linear relationship with the log P values, and it is defined as similar to the capacity factor, k, in HPLC.
Reversed-phase thin-layer chromatography (RPTLC) was used for the determination of RM values. Silica gel plates were saturated with 5% v/v liquid paraffin in petroleum ether. The mobile phase consisted of a methanol/water mixture (70/30, v/v). The plates were developed in closed chromatography tanks saturated with the mobile phase. Spots were detected under UV light or after exposure to iodine vapor. RM values were calculated from the corresponding Rf values (from five individual measurements) using […]. RM = log[(1/Rf) − 1], (2) where Rf is obtained by dividing the distance covered by the sample by the distance covered by the mobile phase.

[5] = biological target: T2, soybean lipoxygenase isoenzyme-1 (SLOX-1) (Glycine max, UniProt P08170); assay: Inhibition of soybean lipoxygenase in vitro; assay type: biochemical; conditions: soybean LOX; for IC50: pH 9.00, ± SD, read-out: LOX Inh. IC50
T2 construct: purchased Sigma Chemical, Co. (St. Louis, MO, USA)
T2 sequence (P08170 1-839): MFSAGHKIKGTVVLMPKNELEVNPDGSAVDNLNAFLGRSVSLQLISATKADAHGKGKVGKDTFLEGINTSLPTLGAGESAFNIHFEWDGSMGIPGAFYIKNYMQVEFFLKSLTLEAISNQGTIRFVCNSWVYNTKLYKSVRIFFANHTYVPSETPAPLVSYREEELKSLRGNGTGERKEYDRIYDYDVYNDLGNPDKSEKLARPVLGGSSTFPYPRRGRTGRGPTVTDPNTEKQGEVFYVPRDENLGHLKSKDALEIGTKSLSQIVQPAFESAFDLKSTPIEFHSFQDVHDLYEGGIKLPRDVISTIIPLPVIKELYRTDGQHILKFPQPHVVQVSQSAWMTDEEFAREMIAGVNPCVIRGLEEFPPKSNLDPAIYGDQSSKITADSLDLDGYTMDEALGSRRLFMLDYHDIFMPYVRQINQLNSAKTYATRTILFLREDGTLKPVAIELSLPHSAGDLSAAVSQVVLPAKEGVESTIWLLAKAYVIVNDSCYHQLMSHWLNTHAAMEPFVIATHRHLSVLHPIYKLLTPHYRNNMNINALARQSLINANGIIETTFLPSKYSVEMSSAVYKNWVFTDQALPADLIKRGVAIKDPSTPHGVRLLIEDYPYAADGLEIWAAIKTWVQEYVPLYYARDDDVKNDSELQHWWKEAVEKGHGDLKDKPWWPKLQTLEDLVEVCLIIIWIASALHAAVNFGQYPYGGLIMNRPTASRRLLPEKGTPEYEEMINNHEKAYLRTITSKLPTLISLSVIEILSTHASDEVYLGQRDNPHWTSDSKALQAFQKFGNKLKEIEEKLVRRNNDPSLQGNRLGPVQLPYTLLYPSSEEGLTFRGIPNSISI
Procedure: In vitro anti-LOX activities were measured against soybean lipoxygenase isoenzyme-1 (SLOX-1), which is widely used as a model for mammalian LOXs.
An in vitro study was conducted as reported previously. The tested compounds were dissolved in DMSO (100 µM) and incubated at room temperature with sodium linoleate (0.1 mL) as a substrate and 0.2 mL of a soybean lipoxygenase solution in a buffer solution of Tris:HCl (pH 9.00).

[6] = parameters: method as in doi:10.3390/M1314; conditions: RPTLC; cited from earlier work
ovine COX-2 [7] = biological target: T1, ovine COX-2; parameters: purchased Cayman; conditions: read-out: COX-2 Inh. IC50; cited from earlier work
[8] = parameters: method as in doi:10.3390/M1314; conditions: Molinspiration software; cited from earlier work
[9] = biological target: T2, soybean lipoxygenase isoenzyme-1 (SLOX-1); conditions: soybean LOX; read-out: LOX Inh. IC50; cited from earlier work

## O=C(O)/C=C/c1ccccc1 [Cinnamic acid, reference compound]
[1]
  ILP % at 100 μM (inhibition of lipid peroxidation): 78 ± 3.2%

## COc1ccc(C=NNC(=O)c2sc3ccccc3c2Cl)cc1OC [III]
COX-2
  IC50: 0.68 µM
5-LOX
  IC50: 1.87 µM
COX-1
  IC50: 2.9 µM
Paw edema
  % paw edema reduction (in vivo): 89.8%

## COc1ccc(/C=C2\SC(=S)N(NC(=O)c3sc4ccccc4c3Cl)C2=O)cc1OC [II]
5-LOX
  IC50: 2.33 µM
COX-1
  IC50: 3.4 µM
Paw edema
  % paw edema reduction (in vivo): 93.26%

## Cc1ccc(C(C)C)c(O)c1/C=N/NC(=O)c1cc(-c2ccccc2)n[nH]1 [IV]
COX-2
  IC50: 0.068 ± 0.01 µM
5-LOX
  IC50: 3.05 ± 0.067 µM
COX-1
  IC50: 10.3 ± 0.1 µM
Paw edema
  % paw edema reduction (in vivo): 81.93%

## COc1cc(/C=c2\c(=O)[nH]n3c(=O)c4ccccc4nc23)cc(OC)c1OC [I]
COX-2
  IC50: 0.047 ± 0.0027 µM
5-LOX
  IC50: 2.3 ± 0.13 µM
COX-1
  IC50: 0.668 ± 0.0212 µM

## Cc1c(C)c2c(c(C)c1O)CCC(C)(C(=O)O)O2 (centres unmarked) [Trolox, reference compound]
[2]
  ILP % at 100 μM (inhibition of lipid peroxidation): 93 ± 2.5%

## CN(C)c1ccc(/C=C/c2c[nH]cc2C(=O)c2ccc(Cl)cc2)cc1 [compound 1, (E)-(4-chlorophenyl) (4-(4-(dimethylamino)styryl)-1H-pyrrol-3-yl)methanone]
Ovine COX-2 [3]
  IC50: 10 ± 0.8 µM
[4]
  RM: 0.3076
[5]
  IC50: 51.5 ± 1.7 µM
[2]; 100 µM
  ILP % at 100 μM (inhibition of lipid peroxidation): 34% and 33.8 ± 1.3%

## CN(C)c1ccc(-c2c[nH]cc2C(=O)c2ccc(Cl)cc2)cc1 [compound 2, (4-chlorophenyl) (4-(4-(dimethylamino)phenyl)-1H-pyrrol-3-yl) methanone]
Ovine COX-2 [3]
  inhibition at 100 µM: 17%
[4]
  RM: 0.0116
[5]
  IC50: 7.5 ± 0.5 µM
[2]; 100 µM
  ILP % at 100 μM (inhibition of lipid peroxidation): 33% and 32.8 ± 0.8%

## CN(C)c1ccc(-c2c[nH]cc2C(=O)c2cccs2)cc1 [compound 3, (4-(4-(dimethylamino)phenyl)-1H-pyrrol-3-yl) (thiophen-2-yl) methanone]
Ovine COX-2 [3]
  inhibition at 100 µM: 12%
[4]
  RM: −0.3340
[5]; pH 9, 100 μM, pH 9.00, read-out: LOX Inh. % at 100 μM
  inhibition at 100 µM: 43%
[2]
  ILP % at 100 μM (inhibition of lipid peroxidation): inactive
[2]; 100 µM
  ILP % at 100 μM (inhibition of lipid peroxidation): no action at all and no

## O=C(c1ccccc1)c1c[nH]cc1-c1ccccc1 [compound 4]
[1]; 100 µM
  ILP % at 100 μM (inhibition of lipid peroxidation): 44% and 44.3 ± 1.1%
[6]
  RM: −0.4102
Ovine COX-2 [7]
  IC50: 0.65 ± 0.1 µM
[8]
  miLogP: 3.96
[9]
  IC50: 100 ± 3.3 µM

## CN(C)c1ccc(/C=C/c2cn(C(=O)/C=C/c3ccccc3)cc2C(=O)c2ccccc2)cc1 [compound 5, (E)-1-(3-benzoyl-4-((E)-4-(dimethylamino)styryl)-1H-pyrrol-1-yl)-3-phenylprop-2-en-1-one]
Ovine COX-2 [3]
  IC50: 0.55 ± 0.3 µM
[4]
  RM: −0.4174
[5]
  IC50: 30 ± 1.6 µM
[2]; 100 µM
  ILP % at 100 μM (inhibition of lipid peroxidation): 36% and 36.4 ± 0.4%

## CN(C)c1ccc(-c2cn(C(=O)/C=C/c3ccccc3)cc2C(=O)c2ccc(Cl)cc2)cc1 [compound 6, (E)-1-(3-(4-chlorobenzoyl)-4-(4-(dimethylamino)phenyl)-1H-pyrrol-1-yl)-3-phenylprop-2-en-1-one]
Ovine COX-2 [3]
  IC50: 7 ± 0.6 µM
[4]
  RM: −0.4771
[5]
  IC50: 27.5 ± 1.3 µM
[2]; 100 µM
  ILP % at 100 μM (inhibition of lipid peroxidation): 62% and 61.6 ± 2.3%

## CN(C)c1ccc(-c2cn(C(=O)/C=C/c3ccccc3)cc2C(=O)c2cccs2)cc1 [compound 7, (E)-1-(3-(4-(dimethylamino)phenyl)-4-(thiophene-2-carbonyl)-1H-pyrrol-1-yl)-3-phenylprop-2-en-1-one]
Ovine COX-2 [3]
  IC50: 7.2 ± 0.3 µM
[5]
  IC50: 35 ± 1.6 µM
[2]; 100 µM
  ILP % at 100 μM (inhibition of lipid peroxidation): 31% and 31.1 ± 1.1%

## O=C(c1ccccc1)c1cn(C(=O)/C=C/c2ccccc2)cc1-c1ccccc1 [compound 8, (E)-1-(3-Benzoyl-4-Phenyl-1H-Pyrrol-1-Yl)-3-Phenylprop-2-En-1-One]
[1]; 100 µM
  ILP % at 100 μM (inhibition of lipid peroxidation): 58% and 58.1 ± 1.8%
[6]
  RM: −0.4771
Ovine COX-2 [7]
  IC50: 6 ± 0.1 µM
[8]
  miLogP: 6.26
[9]
  IC50: 39 ± 2.3 µM
